Data on 18 compounds can be found in patent publication US4708961A, “Acylindole derivatives and their use in pharmaceutical compositions” (priority 1983, dated 1987).

Series [1] concerns collagen induced platelet-aggregation (Platelet Rich Plasma). Description: Inhibition of platelet-aggregation (collagen induced, aggregometer, rat PRP). It is filed as cell-based, Wistar-strain male rats. Conditions: for IC50: same manner (collagen), male rats weighing 500-700 g; for Platelet Aggregation (%): control 58 ± 1. How it is done: (2) Inhibition of platelet-aggregation
Groups of 5 Wistar-strain male rats (weighing 250-300 g) were used for collection of blood from abdominal aorta in the presence of sodium citric acid under anesthesia with ether. The obtained material was centrifuged at 200×g for 8 minutes to give Platelet Rich Plasma (PRP) from the supernatant. Further centrifugation was carried out at 1500×g for 15 minutes to obtain Platelet Poor Plasma (PPP) from the supernatant.
Platelet-aggregation was measured by aggregometer. 5 μl of the solution of the examined compound was added to 450 μl of the above-mentioned PRP and incubated for 1 minute at 37° C., after that a coagulant was added thereto. Collagen was used as the coagulant (final concentration was 4 μg/ml). Test compound was dissolved in DMSO (dimethylsulfoxide).
In the same manner as indicated above using Wister strain male rats weighing 500-700 g, example of the results is shown in Table 2.

In another series the test system is ddy-strain male mice. Description: Acute toxicity test. Conditions: 4000 mg/kg, orally administered, groups of 5 ddy-strain male mice fasted for 18 hours. It is filed as in vivo. How it is done:
4000 mg/kg of the compound of the invention were orally administered to groups of 5 ddy-strain male mice which were fasted for 18 hours.

The mark [2] stands for this setting: 300 μM, collagen 4 μg/ml, PRP of Wistar-strain male rats 250-300 g, 1 minute at 37° C.
[3] abbreviates: Rattus norvegicus, Platelet, 1 min, 300 μM, collagen 4 μg/ml, PRP of Wistar-strain male rats 250-300 g, 1 minute at 37° C., read-out: Inhibition rate (%).

For orientation: IC50 means the point on the concentration scale where inhibition reaches its midpoint. Higher therefore signals lower potency. Take `O=C(c1ccc(OCC(O)CO)cc1)c1cn(CC(O)CO)c2ccccc12` (stereo not drawn) [compound 18, 3-[p-(2,3-dihydroxypropoxy)benzoyl]-N-(2,3-dihydroxypropyl)indole]: 94 µM corresponded to half-maximal inhibition in series [1] (Rattus norvegicus, Platelet) (IC50).

What is called inhibition is the change of the read-out against control, counted positive when it falls. Consider `CC(=O)Oc1ccccc1C(=O)O` [Aspirin, reference compound], for which the “Platelet Aggregation (%)” value in series [1] (setting [2]) is 23 ± 4%. Also, in series [1] (setting [3]), the inhibition at 300 µM came to 60%.

In series [1] (Rattus norvegicus, Platelet), `O=C(c1ccc(OCCCO)cc1)c1cn(CCCO)c2ccccc12` [compound 24, 3-[p-(3-hydroxypropoxy)benzoyl]-N-(3-hydroxypropyl)indole] had an IC50 of 77 µM.

With `O=C(c1ccccc1O)c1c[nH]c2ccccc12` [compound 4, 3-(o-hydroxybenzoyl)indole], in the series with ddy-strain male mice, the “mortality (none of the mice were died)” value is “none of the mice were died”. Besides, the “Platelet Aggregation (%)” value in series [1] (setting [2]) is 8 ± 5%. This compound returned an IC50 in series [1] (Rattus norvegicus, Platelet) of 23 µM.

As for `COc1ccc(C(=O)c2cn(C(C)=O)c3ccccc23)cc1` [compound 5, 3-(p-methoxybenzoyl)-N-acetylindole], the “mortality (none of the mice were died)” value with ddy-strain male mice is “none of the mice were died”. Further, the “Platelet Aggregation (%)” value in series [1] (200 μM, collagen 4 μg/ml, PRP of Wistar-strain male rats 250-300 g, 1 minute at 37° C.) is given as 33 ± 1%. The inhibition at 200 µM in series [1] (Rattus norvegicus, Platelet, 1 min, 200 μM, collagen 4 μg/ml, PRP of Wistar-strain male rats 250-300 g, 1 minute at 37° C., read-out: Inhibition rate (%)) stood at 43%. The IC50 in series [1] (Rattus norvegicus, Platelet) stood at 29 µM.

As to `O=C(c1ccc(O)cc1)c1cn(CC(O)CO)c2ccccc12` (stereo not drawn) [compound 17, 3-(p-hydroxybenzoyl)-N-(2,3-dihydroxypropyl)indole], inhibition in series [1] (Rattus norvegicus, Platelet) was half-maximal at 85 µM (IC50).

For `CC(C)Oc1ccc(C(=O)c2c[nH]c3ccccc23)cc1` [compound 9, 3-(p-isopropoxybenzoyl)indole], the “mortality (none of the mice were died)” value in the series on ddy-strain male mice was “none of the mice were died”. Further, in series [1] (setting [2]), the “Platelet Aggregation (%)” value came out at 8 ± 3%.

As for `CC(=O)Oc1ccc(C(=O)c2cn(C(C)=O)c3ccccc23)cc1` [compound 7, 3-(p-acetoxybenzoyl)-N-acetylindole], in the series on ddy-strain male mice, the “mortality (none of the mice were died)” value is “none of the mice were died”. Further, the “Platelet Aggregation (%)” value in series [1] (setting [2]) turned out to be 7 ± 1%. Moreover, in series [1] (setting [3]), the inhibition at 300 µM was 88%. For the same compound, the IC50 in series [1] (Rattus norvegicus, Platelet) turned out to be 21 µM.

In series [1] (Rattus norvegicus, Platelet), `O=C(c1ccccc1OCC(O)CO)c1cn(CC(O)CO)c2ccccc12` (stereo not drawn) [compound 20] gave an IC50 of 108 µM.

In series [1] (Rattus norvegicus, Platelet), `O=C(c1ccccc1O)c1cn(CC(O)CO)c2ccccc12` (stereo not drawn) [compound 19, 3-(o-hydroxybenzoyl)-N-(2,3-dihydroxypropyl)indole] had an IC50 of 81 µM.

With `O=C(c1ccc(O)cc1)c1c[nH]c2ccccc12` [compound 3, 3-(p-hydroxybenzoyl)indole], the “mortality (none of the mice were died)” value in the series with ddy-strain male mice was “none of the mice were died”. For the same compound, the “Platelet Aggregation (%)” value in series [1] (setting [2]) stood at 7 ± 3%. This compound showed an IC50 in series [1] (Rattus norvegicus, Platelet) of 27 µM.

`COc1ccccc1C(=O)c1c[nH]c2ccccc12` [compound 2, 3-(o-methoxybenzoyl)indole]: the “mortality (none of the mice were died)” value in the series with ddy-strain male mice is “none of the mice were died”. Further, in series [1] (setting [2]), the “Platelet Aggregation (%)” value is listed as 7 ± 4%. In addition, 29 µM corresponded to half-maximal inhibition in series [1] (Rattus norvegicus, Platelet) (IC50).

Turning to `COc1ccccc1C(=O)c1cn(C(C)=O)c2ccccc12` [compound 6, 3-(o-methoxybenzoyl)-N-acetylindole], the “mortality (none of the mice were died)” value in the series with ddy-strain male mice is given as “none of the mice were died”. In addition, the “Platelet Aggregation (%)” value in series [1] (setting [2]) was determined as 9 ± 3%. In addition, the inhibition at 300 µM in series [1] (setting [3]) was determined as 84%. In series [1] (Rattus norvegicus, Platelet), this compound returned a half-inhibitory concentration (IC50) of 18 µM.

Consider `O=C(c1ccc(OCC(O)CO)cc1)c1c[nH]c2ccccc12` (stereo not drawn) [compound 16, 3-[p-(2,3-dihydroxypropoxy)benzoyl]indole], for which, in series [1] (Rattus norvegicus, Platelet), inhibition was half-maximal at 61 µM (IC50).

Turning to `COc1ccc2c(c1)c(CC(=O)O)c(C)n2C(=O)c1ccc(Cl)cc1` [Indomethacin, reference compound], the IC50 in series [1] (Rattus norvegicus, Platelet) came out at 27 µM.

`O=C(c1ccc(OCCCO)cc1)c1c[nH]c2ccccc12` [compound 23, 3-[p-(3-hydroxypropoxy)benzoyl]indole] registered a concentration for half-maximal inhibition (IC50) in series [1] (Rattus norvegicus, Platelet) of 52 µM.

Take `COc1ccc(C(=O)c2c[nH]c3ccccc23)cc1` [compound 1, 3-(p-methoxybenzoyl)indole]: in the series on ddy-strain male mice, the “mortality (none of the mice were died)” value is “none of the mice were died”. The “Platelet Aggregation (%)” value in series [1] (setting [2]) is recorded as 22 ± 5%. In addition, the inhibition at 300 µM in series [1] (setting [3]) was determined as 62%. For the same compound, in series [1] (Rattus norvegicus, Platelet), the IC50 turned out to be 30 µM.

For the compound `COc1ccc(C(=O)c2cn(C)c3ccccc23)cc1` [compound 8, 3-(p-methoxybenzoyl)-N-methylindole], the “mortality (none of the mice were died)” value in the series on ddy-strain male mice is “none of the mice were died”. This compound came in with an IC50 in series [1] (Rattus norvegicus, Platelet) of 23 µM.
